# US20260070917A1, “CYCLIN DEPENDENT KINASE DEGRADERS AND METHODS OF USE THEREOF” (Differentiated Therapeutics Inc, priority 2023, published 2026)
# What was measured:
# Type in all cases: cell-based
# [1] = target: T1, CDK2 (Homo sapiens, UniProt P24941); assay: HiBit Assay Protocol for CDK2 (HIBIT protein quantification, degradation); conditions: HEK293-CDK2-Hibit cells, compound treatment for 6 hours; for DC50: ABS DC50
# T1 construct: host or cells: HEK293-CDK2-Hibit
# Summary of the method: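 DC50 comes from a fitted curve of remaining CDK2-HiBiT luminescence, referenced to DMSO-treated cells and medium-only wells. HEK293-CDK2-HiBiT cells, plated the previous night, received compounds in a 10-point, 3-fold series for 6 h before lysis with LgBiT-containing Nano-Glo HiBiT reagent.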
# [2] = target: T2, CCNE1 (Homo sapiens, UniProt P24864); assay: HiBit Assay Protocol for CCNE1 (HIBIT protein quantification, degradation); conditions: HEK293-CCNE1-Hibit cells, compound treatment for 6 hours
# T2 construct: host or cells: HEK293-CCNE1-Hibit
# T2 sequence (P24864 whole entry): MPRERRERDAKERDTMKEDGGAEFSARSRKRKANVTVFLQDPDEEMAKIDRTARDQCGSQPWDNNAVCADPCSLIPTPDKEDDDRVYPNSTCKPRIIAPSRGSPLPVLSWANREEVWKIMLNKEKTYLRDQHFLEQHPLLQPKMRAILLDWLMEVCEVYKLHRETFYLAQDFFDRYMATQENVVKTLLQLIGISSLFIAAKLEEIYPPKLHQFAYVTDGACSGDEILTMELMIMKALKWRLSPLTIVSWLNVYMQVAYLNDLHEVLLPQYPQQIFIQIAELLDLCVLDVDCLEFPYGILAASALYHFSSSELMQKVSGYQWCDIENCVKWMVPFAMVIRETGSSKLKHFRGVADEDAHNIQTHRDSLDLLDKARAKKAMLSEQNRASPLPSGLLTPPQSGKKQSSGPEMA
# Summary of the method: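 Degradation readout: lytic Nano-Glo HiBiT luminescence after 6 h exposure of HEK293-CCNE1-HiBiT cells to 10-point, 3-fold serial dilutions. Signal was scaled between medium-only and DMSO-treated wells, and DC50 came from curve fits.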
# [3] = target: T3, CDK9 (Homo sapiens, UniProt P50750); assay: HiBit Assay Protocol for CDK9 (HIBIT protein quantification, degradation); conditions: HEK293-CDK9-Hibit cells, compound treatment for 6 hours; for Dmax: 6 h, read-out: CDK9 HIBIT Protein Quantification Maximum
# T3 construct: host or cells: HEK293-CDK9-Hibit
# T3 sequence (P50750 whole entry): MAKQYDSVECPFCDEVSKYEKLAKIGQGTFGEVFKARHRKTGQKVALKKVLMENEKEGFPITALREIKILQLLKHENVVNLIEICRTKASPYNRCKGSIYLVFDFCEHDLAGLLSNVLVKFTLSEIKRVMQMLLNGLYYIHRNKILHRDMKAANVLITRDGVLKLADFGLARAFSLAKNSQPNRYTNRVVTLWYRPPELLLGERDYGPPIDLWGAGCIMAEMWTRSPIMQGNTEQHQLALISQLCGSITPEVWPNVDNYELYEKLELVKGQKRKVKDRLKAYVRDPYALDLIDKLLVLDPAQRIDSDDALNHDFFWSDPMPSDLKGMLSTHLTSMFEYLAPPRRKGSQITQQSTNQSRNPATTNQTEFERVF
# Summary of the method: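 Degradation read-out: luminescence after lytic HiBiT/LgBiT detection in HEK293-CDK9-HiBiT cells exposed 6 h to 10-point, 3-fold compound dilutions. Signal scaled between 0.1% DMSO-treated cells and medium alone; DC50 fitted from the curve.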
Compound,CDK2 HIBIT Protein Quantification Maximum [1] [%],DC50 [1] [nM],CCNE1 HIBIT Protein Quantification Maximum [2] [%],Dmax [3] [%],DC50 ([3]; ABS DC50) [nM]
CC1CCCC1N1C(=O)C2(CC2)c2cnc(NC3CCN(S(=O)(=O)N4CC(N(C)C(=O)CCCCCCCCCc5ccc6c(c5)n(C)c(=O)n6C5CCC(=O)NC5=O)C4)CC3)nc21 (stereo not shown) [Compound 86],65,16,37,34,–
CC1CCCC1N1C(=O)C2(CC2)c2cnc(NC3CCN(S(=O)(=O)N4CC5(CCCN(C(=O)CCCCCCCCCc6ccc7c(c6)n(C)c(=O)n7C6CCC(=O)NC6=O)C5)C4)CC3)nc21 (stereo not shown) [Compound 87],44,–,11,13,–
CC1CCCC1N1C(=O)C2(CC2)c2cnc(NC3CCN(S(=O)(=O)N4CC5(CCN(C(=O)CCCCCCCCCc6ccc7c(c6)n(C)c(=O)n7C6CCC(=O)NC6=O)CC5)C4)CC3)nc21 (stereo not shown) [Compound 88],55,7,21,24,–
CC1CCCC1N1C(=O)C2(CC2)c2cnc(NC3CCN(S(=O)(=O)N4CCC5(CCN(C(=O)CCCCCCCCCc6ccc7c(c6)n(C)c(=O)n7C6CCC(=O)NC6=O)C5)C4)CC3)nc21 (stereo not shown) [Compound 89],50,–,25,35,–
CC1CCCC1N1C(=O)C2(CC2)c2cnc(NC3CCN(S(=O)(=O)C4CCN(C(=O)CCCCCCCCCc5ccc6c(c5)n(C)c(=O)n6C5CCC(=O)NC5=O)C4)CC3)nc21 (stereo not shown) [Compound 90],67,5,34,45,–
CC1CCCC1N1C(=O)C2(CC2)c2cnc(NC3CCN(S(=O)(=O)N4CC(N(C)C(=O)CCCCc5cccc6c5n(C)c(=O)n6C5CCC(=O)NC5=O)C4)CC3)nc21 (stereo not shown) [Compound 91],64,6,25,37,–
CC1CCCC1N1C(=O)C2(CC2)c2cnc(NC3CCN(S(=O)(=O)N4CC5CN(C(=O)CCCCc6cccc7c6n(C)c(=O)n7C6CCC(=O)NC6=O)CC5C4)CC3)nc21 (stereo not shown) [Compound 92],39,–,7,26,–
CC1CCCC1N1C(=O)C2(CC2)c2cnc(NC3CCN(S(=O)(=O)N4CCC5(CCCN5C(=O)CCCCc5cccc6c5n(C)c(=O)n6C5CCC(=O)NC5=O)C4)CC3)nc21 (stereo not shown) [Compound 94],63,16,39,51,2
CC1CCCC1N1C(=O)C2(CC2)c2cnc(NC3CCN(S(=O)(=O)N4CC5(CCCCN5C(=O)CCCCc5cccc6c5n(C)c(=O)n6C5CCC(=O)NC5=O)C4)CC3)nc21 (stereo not shown) [Compound 95],65,11,15,7,–
CC1CCCC1N1C(=O)C2(CC2)c2cnc(NC3CCN(S(=O)(=O)N4CC5(CCCN(C(=O)CCCCc6cccc7c6n(C)c(=O)n7C6CCC(=O)NC6=O)C5)C4)CC3)nc21 (stereo not shown) [Compound 96],46,–,46,26,–
CC1CCCC1N1C(=O)C2(CC2)c2cnc(NC3CCN(S(=O)(=O)N4CC5(CN(C(=O)CCCCc6cccc7c6n(C)c(=O)n7C6CCC(=O)NC6=O)C5)C4)CC3)nc21 (stereo not shown) [Compound 97],41,–,14,46,–
CC1CCCC1N1C(=O)C2(CC2)c2cnc(NC3CCN(S(=O)(=O)N4CC5CN(C(=O)CCCCc6cccc7c6n(C)c(=O)n7C6CCC(=O)NC6=O)CC54)CC3)nc21 (stereo not shown) [Compound 99],31,–,1,11,–
CC1CCCC1N1C(=O)C2(CC2)c2cnc(NC3CCN(S(=O)(=O)N4CCCN(C(=O)CCCCc5cccc6c5n(C)c(=O)n6C5CCC(=O)NC5=O)CC4)CC3)nc21 (stereo not shown) [Compound 100],62,6,31,34,–
CC1CCCC1N1C(=O)C2(CC2)c2cnc(NC3CCN(S(=O)(=O)C4CCCN(C(=O)CCCCc5cccc6c5n(C)c(=O)n6C5CCC(=O)NC5=O)C4)CC3)nc21 (stereo not shown) [Compound 101],38,–,47,23,–
CC1CCCC1N1C(=O)C2(CC2)c2cnc(NC3CCN(S(=O)(=O)N4CC5CN(C(=O)CCCCc6ccc7c(c6)n(C)c(=O)n7C6CCC(=O)NC6=O)CC5C4)CC3)nc21 (stereo not shown) [Compound 103],31,–,7,0,–
CC1CCCC1N1C(=O)C2(CC2)c2cnc(NC3CCN(S(=O)(=O)N4CCCC45CCN(C(=O)CCCCc4ccc6c(c4)n(C)c(=O)n6C4CCC(=O)NC4=O)C5)CC3)nc21 (stereo not shown) [Compound 104],25,–,6,11,–
CC1CCCC1N1C(=O)C2(CC2)c2cnc(NC3CCN(S(=O)(=O)N4CCC5(CCCN5C(=O)CCCCc5ccc6c(c5)n(C)c(=O)n6C5CCC(=O)NC5=O)C4)CC3)nc21 (stereo not shown) [Compound 105],40,–,15,36,–
CC1CCCC1N1C(=O)C2(CC2)c2cnc(NC3CCN(S(=O)(=O)N4CC5(CCCCN5C(=O)CCCCc5ccc6c(c5)n(C)c(=O)n6C5CCC(=O)NC5=O)C4)CC3)nc21 (stereo not shown) [Compound 106],32,–,3,12,–
CC1CCCC1N1C(=O)C2(CC2)c2cnc(NC3CCN(S(=O)(=O)N4CC5(CCCN(C(=O)CCCCc6ccc7c(c6)n(C)c(=O)n7C6CCC(=O)NC6=O)C5)C4)CC3)nc21 (stereo not shown) [Compound 107],28,–,25,22,–
CC1CCCC1N1C(=O)C2(CC2)c2cnc(NC3CCN(S(=O)(=O)N4CC5(CN(C(=O)CCCCc6ccc7c(c6)n(C)c(=O)n7C6CCC(=O)NC6=O)C5)C4)CC3)nc21 (stereo not shown) [Compound 108],42,–,16,4,–
CC1CCCC1N1C(=O)C2(CC2)c2cnc(NC3CCN(S(=O)(=O)N4CC5(CCN(C(=O)CCCCc6ccc7c(c6)n(C)c(=O)n7C6CCC(=O)NC6=O)CC5)C4)CC3)nc21 (stereo not shown) [Compound 109],57,4,22,47,–
CC1CCCC1N1C(=O)C2(CC2)c2cnc(NC3CCN(S(=O)(=O)N4CC5C4CCN5C(=O)CCCCc4ccc5c(c4)n(C)c(=O)n5C4CCC(=O)NC4=O)CC3)nc21 (stereo not shown) [Compound 110],20,–,5,14,–
CC1CCCC1N1C(=O)C2(CC2)c2cnc(NC3CCN(S(=O)(=O)N4CC5CN(C(=O)CCCCc6ccc7c(c6)n(C)c(=O)n7C6CCC(=O)NC6=O)CC54)CC3)nc21 (stereo not shown) [Compound 111],13,–,9,25,–
CC1CCCC1N1C(=O)C2(CC2)c2cnc(NC3CCN(S(=O)(=O)N4CCC5(CCN(C(=O)CCCCc6ccc7c(c6)n(C)c(=O)n7C6CCC(=O)NC6=O)C5)C4)CC3)nc21 (stereo not shown) [Compound 112],22,–,14,28,–
CC1CCCC1N1C(=O)C2(CC2)c2cnc(NC3CCN(S(=O)(=O)N4CCCN(C(=O)CCCCc5ccc6c(c5)n(C)c(=O)n6C5CCC(=O)NC5=O)CC4)CC3)nc21 (stereo not shown) [Compound 113],21,–,28,6,–
"Cn1nc(N2CCC(=O)NC2=O)c2ccc(C3CCN(Cc4cccc(S(=O)(=O)N5CCC(Nc6ncc7c(n6)N([C@@H]6CCC[C@@H](O)C6)C(=O)C76CC6)CC5)c4)CC3)cc21 [Compound 118, 1-(6-(1-(3-((4-((7′-((1R,3R)-3-hydroxycyclohexyl)-6′-oxo-6′,7′-dihydrospiro[cyclopropane-1,5′-pyrrolo[2,3-d]pyrimidin]-2′-yl)amino)piperidin-1-yl)sulfonyl)benzyl)piperidin-4-yl)-1-methyl-1H-indazol-3-yl)dihydropyrimidine-2,4(1H,3H)-dione]",76,7,44,14,–
